The text below walks through data of paper PMC6993238, “Development of a new class of PSMA radioligands comprising ibuprofen as an albumin-binding entity” (Theranostics, 2020).

Broadly, the Kd is the concentration at which binding is half-saturated.

The nature of data set [1]: Radiolytic stability at high activity concentration (HPLC). The data set is classed as physicochemical. The conditions noted are these: 24 h, saline with L-ascorbic acid (3 mg), 250 MBq/500 μL, room temperature. As to the method:
The radiolytic stability of the PSMA radioligands (50 MBq/nmol) was determined at a high activity concentration (250 MBq/500 μL saline) over a period of 24 h in the absence or presence of L-ascorbic acid (3 mg). The samples were kept at room temperature and aliquots were taken 1 h, 4 h and 24 h after labeling in order to determine the amount of intact radioligand using HPLC as previously reported (Supplementary Material), [29].
Methods: Radioly tic stability of each PSMA radioligand was assessed over a period of 24 h. For this purpose, Ibu-PSMA, Ibu-Dα-PSMA, Ibu-N-PSMA and Ibu-DAB-PSMA were labeled with 177Lu in a volume of 120 µL at a molar activity of 50 MBq/nmol. After quality control using HPLC (t = 0, radiochemical purity ≥ 96%), the labeling solutions were diluted with saline to 250 MBq/500 µL and radioligand integrity was determined for each radioligand with and without addition of L-ascorbic acid (3 mg). The radioligand dilutions were incubated at room temperature and radioligand degradation was determined by HPLC after 1 h, 4 h and 24 h incubation time as previously reported. The HPLC chromatograms were analyzed by integration of the peaks representing the radiolabeled product, the released 177Lu as well as degradation products of unknown structure (Figure S3). […]

A further data set concerns mouse plasma proteins. Put plainly: Ultrafiltration assay, binding to mouse plasma proteins. The data set is classed as in vitro ADME. Particulars: 37 °C, 30 min. As for the experimental part:
(§1) In short, the PSMA ligands were labeled with ^177Lu at a molar activity of 50 MBq/nmol, diluted in PBS (pH 7.4) to an activity concentration of 10 MBq/500 μL and incubated in mouse or human plasma at 37 °C for 30 min. After incubation, each sample was loaded on a centifree ultrafiltration device (4104 centrifugal filter units; Millipore, 30000 Da nominal molecular weight limit, methylcellulose micropartition membranes) and centrifuged at 2000 rpm for 40 min at 20 °C to allow the separation of the unbound and plasma-bound radioligand fractions. Samples from the loading solution and samples from the filtrate were taken and counted for radioactivity in a γ-counter. The amount of plasma-bound radioligand was calculated as the fraction of radioactivity measured […] relative to the corresponding loading solution (set to 100%). Control experiments were performed with each radioligand by incubation in PBS (pH 7.4) prior to filtration in order to determine the unspecific binding of the radioligands to the filter membrane. The experiments were performed at least three times for each radioligand. A one-way ANOVA with a Tukeys's multiple comparison post-test was used for statistical analysis in GraphPad Prism software (version 7). A p-value of <0.05 was considered statistically significant.

In the next data set the test system is human plasma proteins. Put plainly: Ultrafiltration assay, binding to human plasma proteins. The data set is classed as in vitro ADME. Particulars: 37 °C, 30 min. As to the method: as §1
A further data set addresses T1, PSMA (Homo sapiens, UniProt Q04609).
T1 construct: expressed in transfected cells; host or cells: PC-3 PIP (PSMA-transfected subline of human PC-3 prostate cancer cells), provided by Prof; Martin Pomper
Put plainly: Determination of KD values (saturation binding on PC-3 PIP tumor cells). The conditions noted are these: 30 min at 4 °C, 2-PMPA block for non-specific binding. As for the experimental part: The KD values, indicating the PSMA-binding affinity of the radioligands, were determined using PC-3 PIP tumor cells. The cells were seeded in 48-well-plates (8 x 10^4 cells in 500 µL RPMI medium/well) allowing adhesion and growth overnight. During the experiment, well plates were kept on ice. After removal of the supernatant, the cells were washed once with ice-cold PBS (pH 7.4) before addition of different concentrations (1‒2000 nM) of the radiolabeled PSMA ligands (5 MBq/nmol) in ice-cold RPMI medium without supplements. Some of the PC-3 PIP tumor cell samples were co-incubated with 2-phosphonomethyl pentanedioic acid (2-PMPA, 200 μM) to block PSMA enabling the determination of non-specific binding. After incubation of the well-plates for 30 min at 4 °C, the supernatants were removed and the cells washed twice with ice-cold PBS. The cells were lysed (NaOH, 1 M, 600 µL) and transferred to 4 mL tubes for counting the activity in a γ-counter (Wallac Wizard 1480, Perkin Elmer). The KD values were determined by plotting specific binding (total binding minus unspecific binding determined with blocking agent) against the molar concentration of the added radioligands. […] Statistical significance was assessed using a one-way ANOVA with a Tukeys's multiple comparison post-test in GraphPad Prism software (version 7). […]

For data set [2], the system named is non-tumor-bearing athymic BALB/c nude mice. As to the kind of experiment: In vivo excretion, whole-body activity measurement. Set-up: species or system mouse. The conditions noted are these: 4 h p.i.; activity right after injection = 100%. As for the experimental part:
14. Determination of the in vivo excretion of the radioligands
Methods: In order to determine the retention and excretion of each radioligand, non-tumor-bearing athymic BALB/c nude mice were injected with each radioligand (n = 2−3; per radioligand). The mice were measured for radioactivity immediately after injection and at several time points after injection up to 56 h p.i. (Figure S8). The PSMA ligands were, therefore, labeled at a molar activity of 25 MBq/nmol and diluted in saline containing 0.05% bovine serum albumin (BSA). Mice were intravenously injected with the respective radioligand (25 MBq, 1 nmol, 100 µL) and – after e mptying the urinary bladder – measured in a dose calibrator immediately (t = 0) and at various time points after injection up to 56 h p.i..
The activity measured right after injection was set as 100%. The data points present the average of three mice per radioligand ± standard deviation (SD). […]
to the albumin-binding properties of the incorporated ibuprofen. The ibuprofen-bearing radioligands […]
p-tolyl moiety as stronger albumin binder. […]
excretion patterns for the single radioligands, which was manifested most prominently between 1 h and 4 h p.i. At all measured time points, retention was highest for the radioligand without additional linker entity, 177Lu-Ibu-PSMA. […]
Figure S8. […] The activity measured right after injection was set as 100%. […]

For data set [3] the following is noted: n-octanol/PBS; cited from earlier work.
Data set [4] deals with PC-3 PIP/flu tumor-bearing mice. The arrangement: method as in Benešová et al. 2018 [1]; AUC value PC-3 PIP tumor / AUC value Blood / AUC value Kidneys / AUC value Liver / AUC value Salivary glands: concentration or dose not given beside the values. Particulars: previously published, ref Benešová et al. 2018 [1], cited from earlier work.

T1 sequence (Q04609 whole entry): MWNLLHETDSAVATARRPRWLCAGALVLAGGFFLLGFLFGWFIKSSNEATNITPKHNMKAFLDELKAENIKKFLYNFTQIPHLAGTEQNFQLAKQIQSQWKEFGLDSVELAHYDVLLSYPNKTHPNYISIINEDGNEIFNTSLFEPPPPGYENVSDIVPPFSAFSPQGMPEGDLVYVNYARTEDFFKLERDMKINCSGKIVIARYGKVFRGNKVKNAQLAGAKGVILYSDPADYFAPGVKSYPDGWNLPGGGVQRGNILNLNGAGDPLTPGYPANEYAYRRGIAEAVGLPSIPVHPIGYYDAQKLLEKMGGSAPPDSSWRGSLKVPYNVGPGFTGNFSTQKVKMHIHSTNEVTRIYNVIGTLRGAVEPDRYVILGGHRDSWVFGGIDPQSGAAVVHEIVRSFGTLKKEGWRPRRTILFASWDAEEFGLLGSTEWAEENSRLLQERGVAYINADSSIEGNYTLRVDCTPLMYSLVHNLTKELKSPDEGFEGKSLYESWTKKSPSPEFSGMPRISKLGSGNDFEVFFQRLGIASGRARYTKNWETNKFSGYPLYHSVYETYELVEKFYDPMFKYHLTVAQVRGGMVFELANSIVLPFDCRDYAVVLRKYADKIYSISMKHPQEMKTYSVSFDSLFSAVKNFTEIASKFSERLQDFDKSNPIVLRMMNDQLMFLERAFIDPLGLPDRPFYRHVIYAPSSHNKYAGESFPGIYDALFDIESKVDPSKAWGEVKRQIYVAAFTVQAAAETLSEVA

As to `O=C([O-])CN1CCN(CC(=O)[O-])CCN(CC(=O)NCC2CCC(C(=O)N[C@@H](Cc3ccc4ccccc4c3)C(=O)NCCCC[C@H](NC(=O)N[C@@H](CCC(=O)O)C(=O)O)C(=O)O)CC2)CCN(CC(=O)[O-])CC1.[177Lu+3]` (stereo partly drawn) [^177Lu-PSMA-617], in data set [1], the intact radioligand result is given as “over 91%”. Moreover, the “binding to mouse plasma proteins (bound fraction)” value with mouse plasma proteins is 6.0 ± 2%. The “binding to human plasma proteins (bound fraction)” value in the data set on human plasma proteins worked out at 59 ± 1%. Besides, the dissociation constant (Kd) at PSMA was 0.013 ± 0.001 µM. Also, the “body retention of activity” value in data set [2] is recorded as 3.2%. Besides, the logD value in data set [3] is listed as -4.4 ± 0.2. In addition, in data set [4] (non-decay-corrected data), the “AUC value Blood” value is 52 ± 2 % IA/g*h, the “AUC value Kidneys” value is on record as 99 ± 11 % IA/g*h, the “AUC value Liver” value is 6.2 ± 1.6 % IA/g*h and the “AUC value PC-3 PIP tumor” value is 3691 ± 156 % IA/g*h. In data set [4] (non-decay-corrected data), the “AUC value Salivary glands” value was 0.5 ± 0.2 % IA/g*h. The “Ratio of AUC values AUCTu-to-AUCBl” value in data set [4] (tumor-to-blood) is given as 71 ± 6. The “Ratio of AUC values AUCTu-to-AUCKi” value in data set [4] (tumor-to-kidney) is on record as 37 ± 6. Further, the “Ratio of AUC values AUCTu-to-AUCLi” value in data set [4] (tumor-to-liver) is 592 ± 179. Further, in data set [4] (tumor-to-salivary gland), the “Ratio of AUC values AUCTu-to-AUCSG” value was 7382 ± 3265.
